# According to the RepoRT retention time repository (doi:10.1016/j.jhazmat.2019.121712):
# Experiment: Thermo Scientific Acclaim RSLC 120 C18, 100 × 2.1 mm, 2.2 µm, 30 °C; A: 90% water + 10% methanol + 0.01% formic acid + 5 mM ammonium formate; B: methanol + 0.01% formic acid + 5 mM ammonium formate; gradient (min/%B) 0.1/1 3/39 14/99.9 16/99.9
# Details: stereoisomer not certain
row,SMILES,LC retention time [min]
1,CN(C)CCC=C1c2ccccc2COc2ccccc21,7.01
2,CON=C1CC2(CC3CC(CC=C(C)CC(C)C=CC=C4COC5C(O)C(C)=CC(C(=O)O3)C45O)O2)OC(C(C)=CC(C)C)C1C (stereo not given),13.8
3,CCN(CC)CCOC(=O)C(O)(c1ccccc1)c1ccccc1,6.08
4,CNCCC(c1ccccc1)c1ccccn1 (stereo not given),5.79
5,NS(=O)(=O)c1cc(C(=O)O)cc(N2CCCC2)c1Oc1ccccc1,7.17
6,O=C(Nc1cccc(C2=NCCN2)c1)Nc1cccc(C2=NCCN2)c1,3.78
7,Cc1ccc(C2(c3ccccc3)NC(=O)NC2=O)cc1 (stereo not given),8.12
8,COP(=S)(OC)SCOC(C)=O,7.16
9,CCC1(c2cccc(O)c2)CCCCN(C)C1 (stereo not given),4.74
10,Cc1cc(C)nc(NC(=O)NS(=O)(=O)c2ccccc2C(=O)OC2COC2)n1,6.52
11,COC(=O)C1=C(C#N)NC(C)=C(C(=O)OC(C)C)C1c1cccc([N+](=O)[O-])c1 (stereo not given),10.3
12,CCC(=O)OC(Cc1ccccc1)(c1ccccc1)C(C)CNC (stereo not given),7.84
13,CCOC(=O)C(CCc1ccccc1)NC(C)C(=O)N1CCCC1C(=O)O (stereo not given),6.83
14,CCN(CC)CCOC(=O)C1(C2CCCCC2)CCCCC1,9.99
15,CCC1OC(=O)C(C)C(OC2CC(C)(OC)C(O)C(C)O2)C(C)C(OC2OC(C)CC(N(C)C)C2O)C(C)(O)CC(C)C(=NOCOCCOC)C(C)C(O)C1(C)O (stereo not given),9.23
16,CCC(=O)OC(Cc1ccccc1)(c1ccccc1)C(C)CN(C)C (stereo not given),7.73
17,Cc1c(NC(=O)c2cccnc2)c(=O)n(-c2ccccc2)n1C,4.56
18,CCN(CC)C(=O)c1cccc(C)c1,8.2
19,CC(C)(C)NCC(O)c1ccc(O)c(CO)c1 (stereo not given),3.23
20,NC(=O)c1ccccc1Oc1ccccc1,7.79
21,Cc1ncc([N+](=O)[O-])n1C,4.27
22,NC(=O)N1c2ccccc2CC(O)c2ccccc21 (stereo not given),5.94

row,SMILES,LC retention time [min]
1,CCCCc1c(C)nc(N(C)C)[nH]c1=O,7.7
2,COc1cc2c(cc1OC)C13CCN4CC5=CCOC6CC(=O)N2C1C6C5CC43 (stereo not given),4.21
3,CN(Cc1cnc2nc(N)nc(N)c2n1)c1ccc(C(=O)NC(CCC(=O)O)C(=O)O)cc1 (stereo not given),3.96
4,CCCC(C(=O)c1ccc2c(c1)OCO2)N1CCCC1 (stereo not given),5.18
5,Oc1ccc(C=Cc2cc(O)cc(O)c2)cc1,5.93
6,CN1CCC(=C2c3ccccc3CCc3sccc32)CC1,7.86
7,O=c1ccc2cc(OC3OC(CO)C(O)C(O)C3O)c(O)cc2o1 (stereo not given),3.69
8,COc1cc(NS(=O)(=O)c2ccc(NC(C)=O)cc2)nc(OC)n1,6.23
9,COc1ccc2[nH]c(C)c(CCN(C)C)c2c1,4.19
10,CSc1nnc(C(C)(C)C)c(=O)[nH]1,7.46
11,CCCCCn1cc(C(=O)c2cccc3ccccc23)c2c(O)cccc21,12.5
12,CC(C)NCC(O)c1ccc(NS(C)(=O)=O)cc1 (stereo not given),2.96
13,COc1ccc2c3c1OC1C(OC4OC(C(=O)O)C(O)C(O)C4O)C=CC4C(C2)NCCC341 (stereo not given),2.48
14,S=c1[nH]c2ccccc2s1,6.89
15,CSC(=O)c1cccc2nnsc12,9.65
16,C=CC(=O)NC(C)(C)CS(=O)(=O)O,2.8
17,C=CCCCn1cc(C(=O)c2cccc3ccccc23)c2ccccc21,12
18,COC1CC(CC2CCC(C)C(C(C)C(=O)O)O2)OC2(OC(C)(C3CCC(C)(C4OC(C5OC(O)(CO)C(C)CC5C)CC4C)O3)CC2C)C1C (stereo not given),13.9
19,CCCCCn1cc(C(=O)CC(C)(C)C(C)(C)O)c2ccccc21,11.6
20,CCCN(CCC)CCc1cccc2c1CC(=O)N2,3.98
21,CNC(C)Cc1ccc2c(c1)OCO2 (stereo not given),4.18
22,CCCCCC(C)n1c(C)c(C(=O)c2cccc3ccccc23)c2ccccc21 (stereo not given),13

row,SMILES,LC retention time [min]
1,CCCCOc1ccc(CC(=O)NO)cc1,7.83
2,COc1ccc(OC)c(CCN)c1,4.43
3,CCCCOC(=O)c1ccccc1C(=O)OCc1ccccc1,12.4
4,COc1ccc2c(c1)[nH]c1c(C)nccc12,5.34
5,COP(=S)(OC)Oc1ccc([N+](=O)[O-])cc1,9.24
6,COC(=O)C(NC(=O)c1nn(CC2CCCCC2)c2ccccc12)C(C)(C)C (stereo not given),12.9
7,Cc1ccc(NS(=O)(=O)N(C)C)cc1,7.25
8,N=C(N)c1ccccc1,2.63
9,CC(C)c1nc(CN(C)C(=O)NC(C(=O)NC(Cc2ccccc2)CC(O)C(Cc2ccccc2)NC(=O)OCc2cncs2)C(C)C)cs1 (stereo not given),11.1
10,CN(C)c1ccc(C(c2ccccc2)c2ccc(N(C)C)cc2)cc1,13.7
11,NC(N)=NCC1COc2ccccc2O1 (stereo not given),4.57
12,CC(NCCc1ccc(O)cc1)C(O)c1ccc(O)cc1 (stereo not given),3.79
13,O=C1OC(=O)c2ccccc21,9.58
14,CCC(N)Cc1ccc2c(c1)OCO2 (stereo not given),4.73
15,C=C1CC23CC1(O)CCC2C12C=CC(O)C(C)(C(=O)O1)C2C3C(=O)O (stereo not given),4.91
16,O=C(O)c1ccccc1C(=O)Nc1ccc(S(=O)(=O)Nc2nccs2)cc1,4.66
17,COc1ccc(C(O)(c2cncnc2)C2CC2)cc1 (stereo not given),7.15
18,CCOc1ccc(NC(=O)OC(C)C)cc1OCC,9.04
19,COc1cc(NS(=O)(=O)c2ccc(N)cc2)nc(OC)n1,5.6
20,Cc1ccccc1C(OCCN(C)C)c1ccccc1 (stereo not given),7.44
21,CC(C)OC(=O)Nc1ccc2nc(-c3cscn3)[nH]c2c1,7.66
22,CCCCCCC(C)(C)c1cc(O)c2c(c1)OC(C)(C)C1CC=C(CO)CC21 (stereo not given),13.5

row,SMILES,LC retention time [min]
1,C1COC(NC(C2CC2)C2CC2)=N1,4.4
2,CCOc1ccc2c(c1)C(C)=CC(C)(C)N2,10.1
3,Cc1oc(C)c(C(=O)Nc2ccccc2)c1C,8.79
4,Cc1cc(C)nc(Nc2ccccc2)n1,9.44
5,CNC(C)C(=O)c1ccc(C)cc1 (stereo not given),4.49
6,CC(C(=O)O)c1ccc(CC(C)(C)O)cc1 (stereo not given),7.08
7,CCCCCn1nc(C(=O)NC(C)(C)c2ccccc2)c2ccccc21,12.5
8,N#CC1CCCN1C(=O)CNC12CC3CC(CC(O)(C3)C1)C2 (stereo not given),3.26
9,COCCCOc1cc(CC(CC(N)C(O)CC(C(=O)NCC(C)(C)C(N)=O)C(C)C)C(C)C)ccc1OC (stereo not given),8.87
10,CCCSc1ccc2nc(NC(=O)OC)[nH]c2c1,9.19
11,CN1CCC23c4c5ccc(O)c4OC2C(O)C=CC3C1C5 (stereo not given),2.54
12,CCCCOc1cc(C(=O)NCCN(CC)CC)c2ccccc2n1,8.41
13,NC1CCc2cc3c(cc2C1)OCO3 (stereo not given),4.32
14,O=C(OC1CN2CCC1CC2)N1CCc2ccccc2C1c1ccccc1 (stereo not given),7.95
15,NS(=O)(=O)c1ccc(N2CCCCS2(=O)=O)cc1,4.11
16,COC(=O)C(Cc1ccccc1)NC(=O)C(N)CC(=O)O (stereo not given),5.01
17,CC1C=CC=CCCC=CC=CC=CC=CC(OC2OC(C)C(O)C(N)C2O)CC2OC(O)(CC(O)C(O)CCC(O)CC(O)CC(O)CC(=O)OC(C)C(C)C1O)CC(O)C2C(=O)O (stereo not given),10.3
18,Cc1ccccc1-n1c(C)nc2ccccc2c1=O,7.83
19,COc1cc(OC)nc(NC(=O)NS(=O)(=O)c2cc(NC=O)ccc2C(=O)N(C)C)n1,7.54
20,COP(=O)(NC(C)=O)SC (stereo not given),3.11
21,Oc1ccc2c3c1OC1C(O)CCC4(O)C(C2)N(CC2CCC2)CCC314 (stereo not given),4.17
22,Cn1c(=O)c2[nH]cnc2n(C)c1=O,3.93

row,SMILES,LC retention time [min]
1,CN1C(C(=O)Nc2ccccn2)=C(O)c2ccccc2S1(=O)=O,6.84
2,CN1Cc2c(N)cccc2C(c2ccccc2)C1 (stereo not given),5.42
3,CC(C1=C(CCN(C)C)Cc2ccccc21)c1ccccn1 (stereo not given),6.86
4,CCOC(=O)C(CCc1ccccc1)NC(C)C(=O)N1C(C(=O)O)CC2CCCCC21 (stereo not given),9.55
5,Nc1ncnc2c1ncn2C1OC(CO)C(O)C1O (stereo not given),3.14
6,CCCOc1ccc(C(=O)CCN2CCCCC2)cc1,6.24
7,CC(=O)c1ccc(S(=O)(=O)NC(=O)NC2CCCCC2)cc1,7.72
8,COC(=O)C1C(OC(=O)c2ccccc2)CC2CCC1N2C (stereo not given),4.84
9,COc1cc2c(c(OC)c1OC)-c1ccc(OC)c(=O)cc1C(NC(C)=O)CC2 (stereo not given),6.43
10,CCN1CC(CCN2CCOCC2)C(c2ccccc2)(c2ccccc2)C1=O (stereo not given),6.23
11,CN1CCN2c3ccccc3Cc3ccccc3C2C1 (stereo not given),6.94
12,CP(=O)(O)CCC(N)C(=O)O (stereo not given),1.44
13,CC(C)NCC(O)COc1ccc(CCOCC2CC2)cc1 (stereo not given),6.68
14,CCCCN1CCCCC1C(=O)Nc1c(C)cccc1C (stereo not given),6.18
15,Cc1ccccc1CC(C)N (stereo not given),5.17
16,O=c1[nH]cnc2[nH]ncc12,2.19
17,CCCCCC(=O)c1ccc(O)cc1O,10.4
18,NC(Cc1cnc[nH]1)C(=O)O (stereo not given),1.23
19,CCCC1C(=O)N2C(N(C)C)=Nc3ccc(C)cc3N2C1=O (stereo not given),6.54
20,CNCCC=C1c2ccccc2CCc2ccccc21,8.51
21,CC12CCC(=O)C=C1CCC1C2C(O)CC2(C)C(C(=O)CO)CCC12 (stereo not given),8.74
22,CC(NCCC(c1ccccc1)c1ccccc1)c1ccccc1 (stereo not given),8.54
